Results taken from the supplement of paper PMC10307832.

Columns and labels:
Assay in all cases: relative viability (nuclei count vs DMSO), 5 days (fraction); higher = more cells survive
A549 = test system: A549
Method in brief: (§1)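 Lung cancer cell lines in 1536-well plates got either a single drug or a fixed anchor-drug dose together with five library-drug doses (not always all listed) in √10 steps, by pin tool, on the day after seeding. Nuclei were counted after 5 days, and relative viability is the treated-to-vehicle ratio of nuclei counts. Values are medians of duplicate plates.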

Calu-6 = test system: Calu-6
Method in brief: as §1

EBC-1 = test system: EBC-1
Method in brief: as §1

IA-LM = test system: IA-LM
Method in brief: as §1

NCI-H1299 = test system: NCI-H1299
Method in brief: as §1

NCI-H1563 = test system: NCI-H1563
Method in brief: as §1

NCI-H1623 = test system: NCI-H1623
Method in brief: as §1

NCI-H1703 = test system: NCI-H1703
Method in brief: as §1

NCI-H2342 = test system: NCI-H2342
Method in brief: as §1

SW 900 = test system: SW 900
Method in brief: as §1

## O=c1[nH]c2ccccc2n1C1CCN(CCCC(c2ccc(F)cc2)c2ccc(F)cc2)CC1 [Pimozide] + COc1cc2c(Oc3ccc(NC(=O)C4(C(=O)Nc5ccc(F)cc5)CC4)cc3F)ccnc2cc1OCCCN1CCOCC1 [Foretinib] (partner 0.25 µM)
A549; first compound 0.08 µM
  relative viability: 0.891
A549; first compound 0.253 µM
  relative viability: 0.988
A549; first compound 0.8 µM
  relative viability: 1.04
A549; first compound 2.53 µM
  relative viability: 0.949
A549; first compound 8 µM
  relative viability: 0.728
Calu-6; first compound 0.08 µM
  relative viability: 0.887
Calu-6; first compound 0.253 µM
  relative viability: 0.925
Calu-6; first compound 0.8 µM
  relative viability: 0.819
Calu-6; first compound 2.53 µM
  relative viability: 0.914
Calu-6; first compound 8 µM
  relative viability: 0.822
EBC-1; first compound 0.08 µM
  relative viability: 0.0944
EBC-1; first compound 0.253 µM
  relative viability: 0.102
EBC-1; first compound 0.8 µM
  relative viability: 0.0973
EBC-1; first compound 2.53 µM
  relative viability: 0.104
EBC-1; first compound 8 µM
  relative viability: 0.12
IA-LM; first compound 0.08 µM
  relative viability: 1.16
IA-LM; first compound 0.253 µM
  relative viability: 1.15
IA-LM; first compound 0.8 µM
  relative viability: 1.16
IA-LM; first compound 2.53 µM
  relative viability: 1.19
IA-LM; first compound 8 µM
  relative viability: 1.17
NCI-H1299; first compound 0.08 µM
  relative viability: 1.11
NCI-H1299; first compound 0.253 µM
  relative viability: 1.12
NCI-H1299; first compound 0.8 µM
  relative viability: 1.07
NCI-H1299; first compound 2.53 µM
  relative viability: 1.07
NCI-H1299; first compound 8 µM
  relative viability: 1.04
NCI-H1563; first compound 0.08 µM
  relative viability: 0.969
NCI-H1563; first compound 0.253 µM
  relative viability: 0.849
NCI-H1563; first compound 0.8 µM
  relative viability: 0.832
NCI-H1563; first compound 2.53 µM
  relative viability: 0.877
NCI-H1563; first compound 8 µM
  relative viability: 0.832
NCI-H1623; first compound 0.08 µM
  relative viability: 0.505
NCI-H1623; first compound 0.253 µM
  relative viability: 0.879
NCI-H1623; first compound 0.8 µM
  relative viability: 0.81
NCI-H1623; first compound 2.53 µM
  relative viability: 0.88
NCI-H1623; first compound 8 µM
  relative viability: 0.889
NCI-H1703; first compound 0.08 µM
  relative viability: 0.394
NCI-H1703; first compound 0.253 µM
  relative viability: 0.272
NCI-H1703; first compound 0.8 µM
  relative viability: 0.375
NCI-H1703; first compound 2.53 µM
  relative viability: 0.37
NCI-H1703; first compound 8 µM
  relative viability: 0.336
NCI-H2342; first compound 0.08 µM
  relative viability: 0.92
NCI-H2342; first compound 0.253 µM
  relative viability: 0.973
NCI-H2342; first compound 0.8 µM
  relative viability: 0.931
NCI-H2342; first compound 2.53 µM
  relative viability: 0.975
NCI-H2342; first compound 8 µM
  relative viability: 1.07
SW 900; first compound 0.08 µM
  relative viability: 0.877
SW 900; first compound 0.253 µM
  relative viability: 0.956
SW 900; first compound 0.8 µM
  relative viability: 0.668
SW 900; first compound 2.53 µM
  relative viability: 0.746
SW 900; first compound 8 µM
  relative viability: 1.03
